Experimental data taken from the supplement of paper PMC10307832.

Experiments:
Test in all cases: relative viability (nuclei count vs DMSO), 5 days (fraction); higher = more cells survive
[1] = test system: NCI-H2023
How it was run: (§1)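 Lung cancer cell lines, seeded in 1536-well plates, were treated the following day by pin tool with a single drug or with five library-drug doses (not always all listed) in √10 steps on top of a fixed anchor-drug dose. Cells were fixed and nuclei stained in one step after 5 days, and nuclei were counted. Relative viability is the nuclei count for treated wells divided by that for vehicle wells, reported as medians of duplicate plates.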

[2] = test system: NCI-H727
How it was run: as §1

[3] = test system: HCC-827
How it was run: as §1

[4] = test system: BEN
How it was run: as §1

[5] = test system: LCLC-103H
How it was run: as §1

[6] = test system: NCI-H1793
How it was run: as §1

[7] = test system: LXF-289
How it was run: as §1

[8] = test system: HOP-62
How it was run: as §1

[9] = test system: RERF-LC-KJ
How it was run: as §1

[10] = test system: NCI-H1395
How it was run: as §1

[11] = test system: NCI-H3122
How it was run: as §1

[12] = test system: NCI-H1437
How it was run: as §1

[13] = test system: NCI-H2087
How it was run: as §1

[14] = test system: NCI-H647
How it was run: as §1

[15] = test system: LCLC-97TM1
How it was run: as §1

[16] = test system: NCI-H322M
How it was run: as §1

[17] = test system: NCI-H1355
How it was run: as §1

[18] = test system: NCI-H1650
How it was run: as §1

[19] = test system: NCI-H2405
How it was run: as §1

[20] = test system: HCC-44
How it was run: as §1

[21] = test system: NCI-H2228
How it was run: as §1

[22] = test system: SK-LU-1
How it was run: as §1

[23] = test system: 201T
How it was run: as §1

[24] = test system: CAL-12T
How it was run: as §1

SMILES: CC(C)Oc1cc(Nc2nc(N[C@@H](C)c3ccc(F)cn3)ncc2Cl)n[nH]1 [AZ23] + CC(=O)Nc1cccc(-n2c(=O)n(C3CC3)c(=O)c3c(Nc4ccc(I)cc4F)n(C)c(=O)c(C)c32)c1 [Trametinib] (partner 0.02 µM)
- relative viability ([1]; first compound 0.03162 µM): 0.602
- relative viability ([1]; first compound 0.3162 µM): 0.48
- relative viability ([2]; first compound 0.01 µM): 0.365
- relative viability ([2]; first compound 0.03162 µM): 0.36
- relative viability ([2]; first compound 0.3162 µM): 0.389
- relative viability ([3]; first compound 0.01 µM): 0.456
- relative viability ([3]; first compound 0.03162 µM): 0.563
- relative viability ([3]; first compound 0.3162 µM): 0.557
- relative viability ([4]; first compound 0.01 µM): 0.909
- relative viability ([4]; first compound 0.03162 µM): 1.14
- relative viability ([4]; first compound 0.3162 µM): 1.09
- relative viability ([5]; first compound 0.01 µM): 0.741
- relative viability ([5]; first compound 0.03162 µM): 0.7
- relative viability ([5]; first compound 0.3162 µM): 0.655
- relative viability ([6]; first compound 0.01 µM): 0.45
- relative viability ([6]; first compound 0.03162 µM): 0.407
- relative viability ([6]; first compound 0.3162 µM): 0.347
- relative viability ([7]; first compound 0.01 µM): 0.74
- relative viability ([7]; first compound 0.03162 µM): 0.671
- relative viability ([7]; first compound 0.3162 µM): 0.615
- relative viability ([8]; first compound 0.01 µM): 0.377
- relative viability ([8]; first compound 0.03162 µM): 0.382
- relative viability ([8]; first compound 0.3162 µM): 0.356
- relative viability ([9]; first compound 0.01 µM): 0.837
- relative viability ([9]; first compound 0.03162 µM): 0.883
- relative viability ([9]; first compound 0.3162 µM): 0.862
- relative viability ([10]; first compound 0.03162 µM): 1.06
- relative viability ([10]; first compound 0.3162 µM): 1.06
- relative viability ([11]; first compound 0.01 µM): 0.268
- relative viability ([11]; first compound 0.03162 µM): 0.243
- relative viability ([11]; first compound 0.3162 µM): 0.22
- relative viability ([12]; first compound 0.01 µM): 0.503
- relative viability ([12]; first compound 0.03162 µM): 0.512
- relative viability ([12]; first compound 0.3162 µM): 0.651
- relative viability ([13]; first compound 0.01 µM): 0.189
- relative viability ([13]; first compound 0.03162 µM): 0.196
- relative viability ([13]; first compound 0.3162 µM): 0.187
- relative viability ([14]; first compound 0.01 µM): 0.61
- relative viability ([14]; first compound 0.03162 µM): 0.58
- relative viability ([14]; first compound 0.3162 µM): 0.509
- relative viability ([15]; first compound 0.01 µM): 0.238
- relative viability ([15]; first compound 0.03162 µM): 0.209
- relative viability ([15]; first compound 0.3162 µM): 0.189
- relative viability ([16]; first compound 0.01 µM): 0.454
- relative viability ([16]; first compound 0.03162 µM): 0.481
- relative viability ([16]; first compound 0.3162 µM): 0.565
- relative viability ([17]; first compound 0.01 µM): 0.359
- relative viability ([17]; first compound 0.03162 µM): 0.417
- relative viability ([17]; first compound 0.3162 µM): 0.353
- relative viability ([18]; first compound 0.01 µM): 0.546
- relative viability ([18]; first compound 0.03162 µM): 0.589
- relative viability ([18]; first compound 0.3162 µM): 0.659
- relative viability ([19]; first compound 0.01 µM): 0.572
- relative viability ([19]; first compound 0.03162 µM): 0.673
- relative viability ([19]; first compound 0.3162 µM): 0.599
- relative viability ([20]; first compound 0.01 µM): 1.1
- relative viability ([20]; first compound 0.03162 µM): 0.92
- relative viability ([20]; first compound 0.3162 µM): 1.05
- relative viability ([21]; first compound 0.01 µM): 0.523
- relative viability ([21]; first compound 0.03162 µM): 0.631
- relative viability ([21]; first compound 0.3162 µM): 0.401
- relative viability ([22]; first compound 0.03162 µM): 0.509
- relative viability ([22]; first compound 0.3162 µM): 0.474
- relative viability ([23]; first compound 0.01 µM): 0.716
- relative viability ([23]; first compound 0.03162 µM): 0.731
- relative viability ([23]; first compound 0.3162 µM): 0.649
- relative viability ([24]; first compound 0.03162 µM): 0.28
- relative viability ([24]; first compound 0.3162 µM): 0.368
